Measured values: ChEMBL document CHEMBL4732267, “Novel Substituted Exomethylene-oxindoles as HPK1 Inhibitors” (ACS Med Chem Lett, 2021)

Target: Mitogen-activated protein kinase kinase kinase kinase 1 (Homo sapiens, UniProt Q92918)
Assay: Inhibition of recombinant human HPK1 expressed in baculovirus infected insect cells using SRKS1 peptide as substrate incubated for 15 mins followed by substrate addition and measured after 3 hrs by TR-FRET assay

Chain of Mitogen-activated protein kinase kinase kinase kinase 1 (Q92918 whole entry): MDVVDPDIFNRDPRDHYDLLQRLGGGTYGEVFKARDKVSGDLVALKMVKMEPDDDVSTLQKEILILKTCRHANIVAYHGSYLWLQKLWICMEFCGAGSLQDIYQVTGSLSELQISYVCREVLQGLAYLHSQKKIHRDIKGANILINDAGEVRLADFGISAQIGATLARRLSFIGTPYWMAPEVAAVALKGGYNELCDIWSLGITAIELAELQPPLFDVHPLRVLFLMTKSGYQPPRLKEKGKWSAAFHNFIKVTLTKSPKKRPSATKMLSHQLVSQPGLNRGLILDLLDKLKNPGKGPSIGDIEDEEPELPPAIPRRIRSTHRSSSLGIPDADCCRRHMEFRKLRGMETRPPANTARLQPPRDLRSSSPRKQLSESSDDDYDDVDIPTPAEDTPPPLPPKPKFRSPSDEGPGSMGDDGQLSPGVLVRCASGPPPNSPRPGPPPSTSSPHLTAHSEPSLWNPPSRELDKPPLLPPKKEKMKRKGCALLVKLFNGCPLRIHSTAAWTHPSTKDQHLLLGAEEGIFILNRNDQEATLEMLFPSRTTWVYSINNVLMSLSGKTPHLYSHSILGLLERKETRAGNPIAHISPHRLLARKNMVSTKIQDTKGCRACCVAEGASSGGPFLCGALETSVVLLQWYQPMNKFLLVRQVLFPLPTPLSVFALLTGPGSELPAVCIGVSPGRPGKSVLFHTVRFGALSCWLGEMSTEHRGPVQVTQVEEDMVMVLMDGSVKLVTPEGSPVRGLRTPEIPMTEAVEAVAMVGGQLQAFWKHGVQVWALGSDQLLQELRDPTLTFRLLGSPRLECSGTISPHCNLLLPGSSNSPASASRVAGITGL

## Cc1c(-c2cc(F)c3c(c2)/C(=C/c2ccc(C4CC4)[nH]2)C(=O)N3)cnc2c1NCCO2
  IC50: 0.05 nM
